Holding throughout (type): cell-based
The subject of one assay is BaF3_HER2WT cells. In words: Cell growth inhibition assay, BaF3_HER2WT. The following applies: 3 days treatment, CellTiterGlo 2.0, read-out: HER2 WT IC50 (nM), cell growth inhibition. For orientation: Cellular ATP, detected with luciferase, serves as a proxy for viable cell number.
The subject of another assay is BaF3_EGFRWT cells. Description: Cell growth inhibition assay, BaF3_EGFRWT. To be noted: 80 ng/mL recombinant human EGF, 3 days treatment, CellTiterGlo 2.0, read-out: EGFR WT IC50 (nM), cell growth inhibition.
In another assay the test system is BaF3_HER2YVMA cells. Description: Cell growth inhibition assay, BaF3_HER2YVMA. The following applies: BaF3_HER2YVMA cells, 3 days treatment, CellTiterGlo 2.0, read-out: HER2-YVMA IC50 (nM), cell growth inhibition.

The structures appear in SMILES notation. Read-outs that look alike come from different tables or passages of the source.

Regarding `C=CC(=O)N1C[C@H]2C[C@@H]1C[C@H]2c1ccn2ncnc(Nc3ccc(Oc4ccn5ncnc5c4)c(C)c3)c12` (relative stereo) [Example 104, Rel-1-[(1S,4S,5R)-5-{4-[(3-methyl-4-{[1,2,4]triazolo[1,5-a]pyridin-7-yloxy}phenyl)amino]pyrrolo[2,1-f][1,2,4]triazin-5-yl}]-2-azabicyclo[2.2.1]heptan-2-yl]prop-2-en-1-one], the half-maximal inhibitory concentration (IC50) (as a rule, the point on the concentration scale where inhibition reaches its midpoint) in the assay on BaF3_HER2WT cells (72 h) was in the range of 500 to 1500 nM; in the assay on BaF3_EGFRWT cells (72 h) it was 1500 to 5000 nM; in the assay with BaF3_HER2YVMA cells (72 h), 1500 to 5000 nM.

Take `Cc1cc(Nc2ncnn3ccc(C4CCN(C(=O)/C=C/CN(C)C)C4)c23)ccc1Oc1ccn2ncnc2c1` (single isomer, unassigned) [Examples 99 and 100, first eluting isomer, (E)-1-(3-(4-((4-([1,2,4]triazolo[1,5-a]pyridin-7-yloxy)-3-methylphenyl)amino)pyrrolo[2,1-f][1,2,4]triazin-5-yl)pyrrolidin-1-yl)-4-(dimethylamino)but-2-en-1-one]: the IC50 was under 200 nM with BaF3_HER2WT cells (72 h), 1500 to 5000 nM in the assay on BaF3_EGFRWT cells (72 h) and under 200 nM in the assay on BaF3_HER2YVMA cells.

In the case of `Cc1cc(Nc2ncnn3ccc(C4CCN(C(=O)/C=C/CN(C)C)C4)c23)ccc1Oc1ccn2ncnc2c1` (single isomer, unassigned) [Examples 99 and 100, second eluting isomer, (E)-1-(3-(4-((4-([1,2,4]triazolo[1,5-a]pyridin-7-yloxy)-3-methylphenyl)amino)pyrrolo[2,1-f][1,2,4]triazin-5-yl)pyrrolidin-1-yl)-4-(dimethylamino)but-2-en-1-one], the values for the IC50 in the assay on BaF3_HER2WT cells, in the assay on BaF3_EGFRWT cells and with BaF3_HER2YVMA cells were under 200 nM, 1500 to 5000 nM and 500 to 1500 nM, respectively.

Consider `Cc1cc(Nc2ncnn3ccc(C4CCCN(C(=O)/C=C/CN(C)C)C4)c23)ccc1Oc1ccn2ncnc2c1` (single isomer, unassigned) [Examples 107 and 108, first eluting isomer, (E)-1-(3-(4-((4-([1,2,4]triazolo[1,5-a]pyridin-7-yloxy)-3-methylphenyl)amino)pyrrolo[2,1-f][1,2,4]triazin-5-yl)piperidin-1-yl)-4-(dimethylamino)but-2-en-1-one], for which the 50% inhibitory concentration (IC50) in the assay with BaF3_HER2WT cells was under 200 nM; in the assay with BaF3_EGFRWT cells (72 h), 1500 to 5000 nM; with BaF3_HER2YVMA cells, 500 to 1500 nM.

As to `Cc1cc(Nc2ncnn3ccc(C4CCCN(C(=O)/C=C/CN(C)C)C4)c23)ccc1Oc1ccn2ncnc2c1` (single isomer, unassigned) [Examples 107 and 108, second eluting isomer, (E)-1-(3-(4-((4-([1,2,4]triazolo[1,5-a]pyridin-7-yloxy)-3-methylphenyl)amino)pyrrolo[2,1-f][1,2,4]triazin-5-yl)piperidin-1-yl)-4-(dimethylamino)but-2-en-1-one], the 50% inhibitory concentration (IC50) was in the range of 500 to 1500 nM in the assay with BaF3_HER2WT cells, 1500 to 5000 nM in the assay on BaF3_EGFRWT cells and 1500 to 5000 nM in the assay with BaF3_HER2YVMA cells.

As to `Cc1cc(Nc2ncnn3ccc(C4CCCN(C(=O)/C=C/CN(C)C)CC4)c23)ccc1Oc1ccn2ncnc2c1` (single isomer, unassigned) [Examples 109 and 110, first eluting isomer, (E)-1-(4-(4-((4-([1,2,4]triazolo[1,5-a]pyridin-7-yloxy)-3-methylphenyl)amino)pyrrolo[2,1-f][1,2,4]triazin-5-yl)azepan-1-yl)-4-(dimethylamino)but-2-en-1-one], the IC50 was under 200 nM in the assay with BaF3_HER2WT cells (72 h), 1500 to 5000 nM with BaF3_EGFRWT cells (72 h) and under 200 nM in the assay with BaF3_HER2YVMA cells (72 h).

With `Cc1cc(Nc2ncnn3ccc(C4CCCN(C(=O)/C=C/CN(C)C)CC4)c23)ccc1Oc1ccn2ncnc2c1` (single isomer, unassigned) [Examples 109 and 110, second eluting isomer, (E)-1-(4-(4-((4-([1,2,4]triazolo[1,5-a]pyridin-7-yloxy)-3-methylphenyl)amino)pyrrolo[2,1-f][1,2,4]triazin-5-yl)azepan-1-yl)-4-(dimethylamino)but-2-en-1-one], the IC50 with BaF3_EGFRWT cells was in the range of 1500 to 5000 nM.

Turning to `C=CC(=O)N1CCCC(c2ccn3ncnc(Nc4ccc(Oc5ccn6ncnc6c5)c(C)c4)c23)CC1` (single isomer, unassigned) [Examples 111 and 112, first eluting isomer, 1-(4-(4-((4-([1,2,4]triazolo[1,5-a]pyridin-7-yloxy)-3-methylphenyl)amino)pyrrolo-[2,1-f][1,2,4]triazin-5-yl)azepan-1-yl)prop-2-en-1-one], the results for the IC50 with BaF3_HER2WT cells (72 h), with BaF3_EGFRWT cells (72 h) and in the assay on BaF3_HER2YVMA cells (72 h) were under 200 nM, 1500 to 5000 nM and under 200 nM, respectively.

As for `C=CC(=O)N1CCCC(c2ccn3ncnc(Nc4ccc(Oc5ccn6ncnc6c5)c(C)c4)c23)CC1` (single isomer, unassigned) [Examples 111 and 112, second eluting isomer, 1-(4-(4-((4-([1,2,4]triazolo[1,5-a]pyridin-7-yloxy)-3-methylphenyl)amino)pyrrolo-[2,1-f][1,2,4]triazin-5-yl)azepan-1-yl)prop-2-en-1-one], the IC50 was 1500 to 5000 nM in the assay with BaF3_EGFRWT cells and under 200 nM with BaF3_HER2YVMA cells.

Regarding `Cc1cc(Nc2ncnn3ccc(C4CC5CCC(C4)N5C(=O)/C=C/CN(C)C)c23)ccc1Oc1ccn2ncnc2c1` (single isomer, unassigned) [Examples 122 and 123, first eluting isomer, (E)-1-(-3-(4-((4-([1,2,4]triazolo[1,5-a]pyridin-7-yloxy)-3-methylphenyl)amino)pyrrolo[2,1-f][1,2,4]triazin-5-yl)-8-azabicyclo[3.2.1]octan-8-yl)-4-(dimethylamino)but-2-en-1-one], the IC50 was under 200 nM in the assay on BaF3_HER2WT cells (72 h), 500 to 1500 nM in the assay on BaF3_EGFRWT cells and under 200 nM in the assay on BaF3_HER2YVMA cells (72 h).

Take `Cc1cc(Nc2ncnn3ccc(C4CC5CCC(C4)N5C(=O)/C=C/CN(C)C)c23)ccc1Oc1ccn2ncnc2c1` (single isomer, unassigned) [Examples 122 and 123, second eluting isomer, (E)-1-(3-(4-((4-([1,2,4]triazolo[1,5-a]pyridin-7-yloxy)-3-methylphenyl)amino)pyrrolo[2,1-f][1,2,4]triazin-5-yl)-8-azabicyclo[3.2.1]octan-8-yl)-4-(dimethylamino)but-2-en-1-one]: the half-maximal inhibitory concentration (IC50) in the assay on BaF3_HER2WT cells was under 200 nM; in the assay with BaF3_EGFRWT cells it was 1500 to 5000 nM; with BaF3_HER2YVMA cells, 200 to 500 nM.

On to `Cc1cc(Nc2ncnn3ccc(C4CCN(C(=O)/C=C/CN(C)C)CC4)c23)ccc1Oc1ccn2ncnc2c1` [Example 21, (E)-1-(4-(4-((4-([1,2,4]triazolo[1,5-a]pyridin-7-yloxy)-3-methylphenyl)amino)pyrrolo[2,1-f][1,2,4]triazin-5-yl)piperidin-1-yl)-4-(dimethylamino)but-2-en-1-one], for which the IC50 in the assay on BaF3_EGFRWT cells (72 h) lay within 1500 to 5000 nM.

For the molecule `COC1CN(C/C=C/C(=O)N2CC(c3ccn4ncnc(Nc5ccc(Oc6ccn7ncnc7c6)c(C)c5)c34)C2)C1` [Example 39, (E)-1-(3-(4-((4-([1,2,4]triazolo[1,5-a]pyridin-7-yloxy)-3-methylphenyl)amino)pyrrolo[2,1-f][1,2,4]triazin-5-yl)azetidin-1-yl)-4-(3-methoxyazetidin-1-yl)but-2-en-1-one], the values for the IC50 in the assay on BaF3_HER2WT cells (72 h) and in the assay with BaF3_EGFRWT cells (72 h) were under 200 nM and 1500 to 5000 nM, respectively.

Source of the values: patent US20250276983A1, “COMPOUNDS AND METHODS FOR MODULATING HER2” (IAMBIC THERAPEUTICS, INC., priority 2022, published 2025).
